The supplement of paper PMC10307832

Experiments:
Experiment in all cases: relative viability (nuclei count vs DMSO), 5 days (fraction); higher = more cells survive
[1] = compound: Cc1ccc(C(=O)Nc2cccc(C(F)(F)F)c2)cc1Nc1cncc(C(N)=O)c1 [ALW-II-49-7] + Cc1cc(Nc2cc(N3CCN(C)CC3)nc(Sc3ccc(NC(=O)C4CC4)cc3)n2)n[nH]1 [Tozasertib] (partner 0.1 µM)
Procedure, shortened: (§1)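 Lung cancer cell lines were seeded in 1536-well plates and dosed by pin tool the next day, with either a single drug or a fixed anchor-drug dose combined with five library-drug doses (not always all listed) spaced in √10 steps. Five days later, one step fixed the cells and stained their nuclei (final 0.05% Triton X-100, 1% formaldehyde, 1 ug/ml Hoechst), and nuclei were counted on 4× images. Relative viability is the nuclei count in treated wells divided by the count in vehicle wells, and each value is the median of duplicate plates.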

[2] = compound: Cc1nc(Nc2ncc(C(=O)Nc3c(C)cccc3Cl)s2)cc(N2CCN(CCO)CC2)n1 [Dasatinib] + CC(=O)c1c(C)c2cnc(Nc3ccc(N4CCNCC4)cn3)nc2n(C2CCCC2)c1=O [Palbociclib] (partner 0.5 µM)
Procedure, shortened: as §1

[3] = compound: C1CC1C(=O)NC2=NNC3=C2C=CC(=C3)C4=CC(=CC=C4)C(=O)NC5CC5 [XMD13-2] + Nc1ncn([C@H]2C[C@H](O)[C@@H](CO)O2)c(=O)n1 [Decitabine] (partner 2 µM)
Procedure, shortened: as §1

[4] = compound: C1CC1C(=O)NC2=NNC3=C2C=CC(=C3)C4=CC(=CC=C4)C(=O)NC5CC5 [XMD13-2] + Nc1nc2[nH]cc(CCc3ccc(C(=O)N[C@@H](CCC(=O)O)C(=O)O)cc3)c2c(=O)[nH]1 [Pemetrexed] (partner 0.2 µM)
Procedure, shortened: as §1

| Cell Line | relative viability ([1]; first compound 0.08 µM) | relative viability ([1]; first compound 0.253 µM) | relative viability ([1]; first compound 0.8 µM) | relative viability ([1]; first compound 2.53 µM) | relative viability ([1]; first compound 8 µM) | relative viability ([2]; first compound 0.005 µM) | relative viability ([2]; first compound 0.01581 µM) | relative viability ([2]; first compound 0.05 µM) | relative viability ([2]; first compound 0.1581 µM) | relative viability ([2]; first compound 0.5 µM) | relative viability ([3]; first compound 0.05 µM) | relative viability ([3]; first compound 0.1581 µM) | relative viability ([3]; first compound 0.5 µM) | relative viability ([3]; first compound 1.581 µM) | relative viability ([3]; first compound 5 µM) | relative viability ([4]; first compound 0.05 µM) | relative viability ([4]; first compound 0.1581 µM) | relative viability ([4]; first compound 0.5 µM) | relative viability ([4]; first compound 1.581 µM) | relative viability ([4]; first compound 5 µM) |
| --- | --- | --- | --- | --- | --- | --- | --- | --- | --- | --- | --- | --- | --- | --- | --- | --- | --- | --- | --- | --- |
| 201T | 0.886 | 0.948 | 0.941 | 0.902 | 0.92 | 0.341 | 0.306 | 0.311 | 0.296 | 0.237 | 0.861 | 0.839 | 0.905 | 0.86 | 0.902 | 0.372 | 0.309 | 0.384 | 0.329 | 0.364 |
| A549 |  |  |  |  |  |  |  |  |  |  | 0.307 | 0.233 | 0.289 | 0.247 | 0.24 |  |  |  |  |  |
| A-427 | 0.18 | 0.204 | 0.21 | 0.177 | 0.204 | 0.5 | 0.507 | 0.525 | 0.42 | 0.394 | 0.574 | 0.553 | 0.612 |  | 0.503 | 1.04 | 0.922 | 0.995 |  | 0.82 |
| ABC-1 | 0.172 | 0.179 | 0.162 | 0.197 | 0.191 | 0.625 | 0.5 | 0.662 | 0.524 | 0.688 | 1.13 | 1.33 | 1.24 |  | 1.11 |  |  |  |  |  |
| BEN | 0.331 | 0.524 | 0.512 | 0.515 | 0.632 | 0.448 | 0.387 | 0.43 | 0.365 | 0.34 | 0.803 | 0.705 | 0.719 | 0.648 | 0.705 | 0.876 | 0.858 | 0.734 | 0.641 | 0.803 |
| CAL-12T | 0.289 | 0.406 | 0.389 | 0.274 | 0.308 | 0.418 | 0.414 | 0.402 | 0.191 | 0.144 |  |  |  |  |  | 1.27 | 1.1 | 1.25 | 1.11 | 1.23 |
| COR-L23 | 0.206 | 0.193 | 0.17 | 0.15 | 0.15 | 0.317 | 0.229 | 0.229 | 0.168 | 0.19 | 0.438 | 0.399 | 0.513 | 0.458 | 0.376 | 0.197 | 0.194 | 0.204 | 0.218 | 0.197 |
| COR-L 105 | 0.38 | 0.263 | 0.346 | 0.336 | 0.315 | 0.429 | 0.363 | 0.368 | 0.371 | 0.275 | 0.747 | 0.717 | 0.755 | 0.66 | 0.638 | 1.01 | 1.26 | 1.04 | 0.98 | 1.26 |
| ChaGo-K-1 | 0.248 | 0.238 | 0.22 | 0.212 | 0.2 | 0.947 | 0.881 | 0.892 | 0.802 | 0.634 | 0.521 | 0.53 | 0.528 | 0.511 | 0.496 | 0.255 | 0.267 | 0.259 | 0.253 | 0.264 |
| EKVX | 0.323 | 0.413 | 0.344 | 0.322 | 0.381 | 0.412 | 0.319 | 0.332 | 0.199 | 0.13 | 0.395 | 0.32 | 0.419 |  | 0.307 | 0.457 | 0.324 | 0.432 |  | 0.428 |
